Experimental data published in patent US20210228523A1, “MODULATORS OF SESTRIN-GATOR2 INTERACTION AND USES THEREOF” (Navitor Pharmaceuticals, Inc., priority 2017, published 2021).

Test system: mTORC1 signaling pathway
Assay: Western blot of mTORC1 substrates in crude synaptosomes from rat prefrontal cortex
Assay type: in vivo
Details: Example B, 1 hr after administration
Protocol: Study Design. Forty-eight (48) male Sprague Dawley rats weighing between 175 and 200 g were randomized into 8 study groups (n=6/group), following a 5-day acclimation period. On study day 0, rats in Groups 3 and 7 received a single dose of Sal while Groups 4 and 8 received a single dose of Ket (10 mg/kg) each by i.p. injection. The rats in Groups 1 and 5 received a single dose of Veh while Groups 2 and 6 received a single dose of NV-5138 (160 mg/kg) each by oral gavage. One hour after dosing, rats in Groups 1-4 were sacrificed by conscious decapitation and followed by collection of the PFC. Crude synaptosomes were prepared from the PFC and three mTORC1 substrates, pmTOR, pp70S6K and p4E-BP1, and corresponding total protein loading controls (mTOR, p70S6K, and GAPDH) were quantitated by WB. Twenty-four hours after dosing, rats in Groups 5-8 were sacrificed by conscious decapitation and collection of the PFC. Crude synaptosomes were prepared from the PFC and the synaptic proteins (GluR1 and PSD95), as well as the total protein loading control (GAPDH), were quantitated by WB.
Formulation of Ket and NV-5138 for Administration. Ket (Sigma, cat #K1884) was dissolved in Sal at a concentration of 10 mg/mL. A volume of 1 mL/kg was injected i.p. NV-5138 (Navitor, Lot #06) was prepared by dissolving in Veh at a concentration of 50 mg/mL. The dosing volume based on the weight of the animal (3.2 mL/kg) was administered by oral gavage. Test articles were prepared the day of dosing.
Prefrontal Cortex Synaptosome Preparations. The brain was dissected from rats in all groups (n=6/group) and rinsed in PBS. The PFC was collected as shown in FIG. 6 and homogenized at 4° C. in homogenization buffer (0.32 M sucrose, 20 mM HEPES at pH 7.4, 1 mM EDTA, 5 mM NaF, 1 mM NaVO3 and protease inhibitor cocktail (Roche; Ser. No. 19/543,200)). The homogenate was centrifuged for 10 min at 2,800 rpm at 4° C. after which the supernatant was removed and re-centrifuged at 12,000 rpm for 10 min at 4° C. The resulting pellet containing crude synaptosomes was re-suspended in Lysis buffer (50 mM Tris-HCl (pH 7.5), 150 mM NaCl, 1% Triton X-100, 0.1% SDS, 2 mM, EDTA, 1 mM NaVO3, 5 mM NaF and protease inhibitor cocktail) and sonicated on ice for 20 s at 50% amplitude. The protein concentration was determined by Bradford assay and all samples were mixed with loading buffer (60 mM Tris-HCl pH 6.8, 20 mM DTT, 2% SDS, 10% glycerol, 5% β-mercaptoethanol and 0.01% Bromophenol blue) and stored at -20° C. until WB analysis.
Western Blot Analysis: Western blot analysis for GluR1, PSD95 and GAPDH was performed as previously described. Briefly, synaptosomes preparations (15 μg total protein) were loaded into 10-15% SDS PAGE gel for electrophoresis and transferred to a polyvinylidene difluoride (PVDF) membrane in transfer buffer (10× premixed electrophoresis buffer contains 25 mM Tris, 192 mM glycine, pH 8.3; Bio-Rad). […] After final three washes with PBS-T buffer, bands were detected using enhanced chemiluminescence. […]

Row | SMILES | levels of p4E-BP1 in crude PFC synaptosomes (Ket 10 mg/kg i.p.) | levels of pmTOR in crude PFC synaptosomes (Ket 10 mg/kg i.p.) | levels of p4E-BP1 in crude PFC synaptosomes (NV-5138 160 mg/kg oral) | levels of pmTOR in crude PFC synaptosomes (NV-5138 160 mg/kg oral) | levels of pp70S6K in crude PFC synaptosomes (NV-5138 160 mg/kg oral)
1 | CNC1(c2ccccc2Cl)CCCCC1=O (centres unmarked) [Ket, ketamine, reference compound] | significantly increased | significantly increased |  |  | 
2 | CC(C)(C[C@H](N)C(=O)O)C(F)F [NV-5138] |  |  | significantly increased | significantly increased | significantly increased
